Assay [1] concerns human kidney tumor (RXF-631L). Kind of assay: Antitumor effect on human renal tumor xenograft (RXF-631L) in nude mice. The settings on record: RXF-631L s.c. xenograft in nude mice; 3.2 and 1.8 mg/kg i.v. q4d×3; FIG. 1. The class given is in vivo, mouse.
Experimental: A recommended amount of FR901228 was weighed, a solvent (10% HCO-60 (Nihon Surfactant Kogyo K.K./saline) was added and the mixture was ultrasonicated for dissolution. The positive control substance, Taxol, was dissolved in Cremophor EL (SIGMA/ethanol (1:1)) to a concentration of 24 mg/mL before test and preserved in refrigerator. When in use, a 9-fold amount of physiological saline was added to dilute the substance to 2.4 mg/mL (solvent component: 5% Cremophor EL-5% ethanol-90% saline).
For the antitumor activity test of the drug, BALB/cANnNCrj-nu/nu mice (female, 6-week-old) were purchased from Charles River Japan (Yokohama, Japan), and after acclimation for more than 1 week, subjected to the test. The mice were reared in an SPF environment, where free access to water and feed was allowed. […]
Fragments (3×3×3 mm) of RXF-631L tumor were subcutaneously implanted into the right flank of BALB/cANnNCrj-nu/nu mice. […] The tumor volume was calculated from the formula: tumor volume (mm^3)=½×L×W^2 where L and W represent the length and width of the tumor mass, respectively.
The administration was started on the day the mice were grouped (Day 0). […] The liquid amount of administration was calculated based on the body weight measured on the day of administration (0.1 mL/10 g body weight).
The tumor size (length, width) and body weight were measured twice a week from Day 0.
Assay [2] concerns clear cell renal carcinoma. Kind of assay: Antineoplastic response in a patient with clear cell renal carcinoma (RECIST criteria). The class given is in vivo, human. How it is done:
This patient was a person with a history of clear cell renal carcinoma that was diagnosed in 1996. The patient received a total of 10 doses of FR901228: FR901228 was administered at 9.10 mg/m^2 on day 1 and day 5 of the first cycle (21 days), 9.10 mg/m^2 on day 1 of the second cycle (21 days), 9.10 mg/m^2 on day 1 and day 5 of the third cycle (28 days), 9.10 mg/m^2 on day 1 of the fourth cycle (22 days), 12.70 mg/m^2 on day 1 of the fifth cycle (20 days), 17.8 mg/m^2 on day 1 of the sixth cycle (23 days), 17.8 mg/m^2 on day 1 of the seventh cycle (23 days) and 17.8 mg/m^2 on day 1 of the eighth cycle (21 days) by continuous infusion for 4 hours. The treatment effect was evaluated based on the RECIST criteria.

As to `C/C=C1\NC(=O)[C@H]2CSSCC/C=C/[C@H](CC(=O)N[C@H](C(C)C)C(=O)N2)OC(=O)[C@H](C(C)C)NC1=O` [FR901228], the “growth of human kidney cancer in vivo (tumor size)” value in assay [1] is reported as “suppressed the growth”. For the same compound, the “treatment effect (RECIST criteria)” value is “partial response” in assay [2] (one patient, 9.10 mg/m^2 by 4 h continuous infusion, after the first two cycles) and “disease progression” in assay [2] (same patient, 10 doses of 9.10-17.8 mg/m^2, after cycle 8).
